Reference: patent US20250152585A1, “PHARMACEUTICAL COMPOUND” (Duke Street Bio Limited, priority 2022, published 2025)
Like-named read-outs stand apart in the source and are kept apart here.

Experiments:
[1] = target: T1, full length N-terminally FLAG-tagged PARP1 (Homo sapiens, UniProt P09874); test: PARP1 biochemical DELFIA assay (auto-PARylation); parameters: recombinant full length human N-terminally FLAG-tagged PARP1
[2] = target: T1, full length N-terminally FLAG-tagged PARP1; test: PARP1 probe displacement HTRF assay; conditions: for Selectivity: PARP1 over PARP2, ratio Kd (PARP2)/Kd (PARP1); for Kd: binned Kd
[3] = target: T2, N-terminally FLAG-tagged PARP2 (amino acids 1-583) (Homo sapiens, UniProt Q9UGN5); test: PARP2 probe displacement HTRF assay; assay type: binding; conditions: binned Kd
T2 construct: N-terminally FLAG-tagged PARP2 (amino acids 1-583)
T2 sequence (Q9UGN5 whole entry, the tested form may be a part): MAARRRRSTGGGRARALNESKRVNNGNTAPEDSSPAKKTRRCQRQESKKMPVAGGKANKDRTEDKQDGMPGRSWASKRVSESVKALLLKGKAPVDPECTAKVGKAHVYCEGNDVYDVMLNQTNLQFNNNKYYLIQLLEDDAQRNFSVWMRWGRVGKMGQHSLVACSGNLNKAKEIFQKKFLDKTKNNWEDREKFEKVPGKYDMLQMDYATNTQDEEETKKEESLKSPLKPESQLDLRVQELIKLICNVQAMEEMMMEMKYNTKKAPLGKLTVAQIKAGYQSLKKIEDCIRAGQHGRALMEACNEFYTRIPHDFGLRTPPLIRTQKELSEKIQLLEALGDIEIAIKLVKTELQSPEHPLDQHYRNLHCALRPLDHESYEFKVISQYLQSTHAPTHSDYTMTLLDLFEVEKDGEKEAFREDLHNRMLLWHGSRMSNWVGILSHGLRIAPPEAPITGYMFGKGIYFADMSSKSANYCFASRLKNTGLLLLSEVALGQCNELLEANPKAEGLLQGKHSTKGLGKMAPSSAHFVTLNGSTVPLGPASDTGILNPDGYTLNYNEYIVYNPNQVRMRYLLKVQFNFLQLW
Description: Data analysis was performed identical as for PARP1.

[4] = binned IC50, PARP1 biochemical DELFIA assay
[5] = read-out: PARP1 HTRF, PARP1 probe displacement HTRF
[6] = binned IC50, biochemical auto-PARylation assay
[7] = read-out: PARP1 HTRF, probe displacement HTRF

T1 sequence (P09874 whole entry): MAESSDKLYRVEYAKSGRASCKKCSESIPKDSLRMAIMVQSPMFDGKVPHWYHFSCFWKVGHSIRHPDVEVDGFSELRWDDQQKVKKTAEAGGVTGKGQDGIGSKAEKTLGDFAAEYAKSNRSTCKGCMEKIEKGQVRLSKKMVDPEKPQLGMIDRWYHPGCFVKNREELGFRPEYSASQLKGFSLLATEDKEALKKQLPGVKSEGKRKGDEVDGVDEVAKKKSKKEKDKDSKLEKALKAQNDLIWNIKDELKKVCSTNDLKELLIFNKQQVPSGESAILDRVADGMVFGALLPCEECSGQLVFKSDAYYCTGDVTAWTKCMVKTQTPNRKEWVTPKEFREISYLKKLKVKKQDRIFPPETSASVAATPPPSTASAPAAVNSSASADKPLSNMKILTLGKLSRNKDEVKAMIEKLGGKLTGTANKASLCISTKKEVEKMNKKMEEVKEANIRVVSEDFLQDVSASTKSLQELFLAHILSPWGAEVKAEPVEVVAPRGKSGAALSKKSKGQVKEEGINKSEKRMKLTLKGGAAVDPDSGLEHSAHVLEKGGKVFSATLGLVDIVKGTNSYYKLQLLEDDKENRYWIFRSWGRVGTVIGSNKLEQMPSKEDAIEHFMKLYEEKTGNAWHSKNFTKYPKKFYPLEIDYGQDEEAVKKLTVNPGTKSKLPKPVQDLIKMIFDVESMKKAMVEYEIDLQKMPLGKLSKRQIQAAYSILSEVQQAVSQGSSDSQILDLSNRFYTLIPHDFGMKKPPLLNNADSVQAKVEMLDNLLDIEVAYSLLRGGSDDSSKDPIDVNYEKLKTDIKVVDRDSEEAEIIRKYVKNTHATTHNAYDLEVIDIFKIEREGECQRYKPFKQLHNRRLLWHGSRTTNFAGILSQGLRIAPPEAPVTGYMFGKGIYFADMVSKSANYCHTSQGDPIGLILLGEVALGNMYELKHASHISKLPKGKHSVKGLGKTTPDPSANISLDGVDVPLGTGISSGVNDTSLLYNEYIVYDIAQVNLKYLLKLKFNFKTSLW

SMILES	IC50 [1, 4] [nM]	Kd [2, 5] [nM]	Kd ([3]; PARP2 probe displacement HTRF) [nM]	IC50 [1, 6] [nM]	Kd [2, 7] [nM]	Kd ([3]; probe displacement HTRF) [nM]	Kd ([2]; PARP1 HTRF, probe displacement HTRF) [nM]	Kd ([2]; PARP1 HTRF, PARP1 probe displacement HTRF) [nM]	Selectivity ([2]; probe displacement HTRF)
CCc1cnc(C2CCCN(CC3CCN(c4ccc(C(=O)NC)nc4)CC3)C2)[nH]c1=O (racemic) [Compound 39rac]	100 to 1000	100 to 1000	> 10000	–	–	–	–	–	+ (+ indicates a value of 10 to less than 50)
CCc1ccc(C2CCN(C3CCN(c4ccc(C(=O)NCCF)nc4)CC3)C2)[nH]c1=O (single isomer, unassigned) [Compound 165b]	10 to 100	10 to 100	1000 to 10000	–	–	–	–	–	+++ (+++ indicate a value of at least 100)
CNC(=O)c1ccc(N2CCC(N3CCC(c4ccc(CCO)c(=O)[nH]4)C3)CC2)cn1 (racemic) [Compound 286rac]	–	–	–	10 to 100	10 to 100	> 10000	–	–	+++ (+++ indicate a value of at least 100)
CCc1ccc(C2CCN(C3CCN(c4ccc(C(=O)NCCOC)nc4)CC3)C2)[nH]c1=O (racemic) [Compound 160rac]	< 10	< 10	1000 to 10000	–	–	–	–	–	+++ (+++ indicate a value of at least 100)
CNC(=O)c1ccc(N2CCC(N3CC4(c5nc6c(c(=O)[nH]5)CCCC6)CC3C4)CC2)cn1 [Compound 361, N-methyl-5-(4-(4-(4-oxo-3,4,5,6,7,8-hexahydroquinazolin-2-yl)-2-azabicyclo[2.1.1]hexan-2-yl)piperidin-1-yl)picolinamide]	–	–	–	< 10	–	100 to 1000	< 10	–	+++ (+++ indicate a value of at least 100)
CNC(=O)c1ccc(N2CCC(N3CCC(c4nc5c(c(C(F)(F)F)cn5C)c(=O)[nH]4)C3)CC2)cn1 (single isomer, unassigned) [Compound 170b]	< 10	< 10	< 10	–	–	–	–	–	− (− indicates a value of less than 10)
CNC(=O)c1ccc(N2CCC(N3CCC(c4ccc(CC(F)(F)F)c(=O)[nH]4)C3)CC2)cn1 (single isomer, unassigned) [Compound 188a]	100 to 1000	100 to 1000	> 10000	–	–	–	–	–	+ (+ indicates a value of 10 to less than 50)
O=C(NCC(F)F)c1ccc(N2CCC(N3CCC(c4cc5ccc(F)cc5c(=O)[nH]4)C3)CC2)c(F)n1 (single isomer, unassigned) [Compound 399b]	–	–	–	< 10	< 10	10 to 100	–	–	+ (+ indicates a value of 10 to less than 50)
CNC(=O)c1ccc(N2CCC(N3CCC(c4cc5cccc(F)c5c(=O)[nH]4)C3)CC2)c(C)n1 (single isomer, unassigned) [Compound 206b]	< 10	< 10	1000 to 10000	–	–	–	–	–	+++ (+++ indicate a value of at least 100)
CNC(=O)c1ccc(N2CCC(N3CCC(c4cc5ncc(F)cc5c(=O)[nH]4)C3)CC2)c(F)n1 (single isomer, unassigned) [Compound 324a]	–	–	–	< 10	< 10	> 10000	–	–	+++ (+++ indicate a value of at least 100)
CCc1ccc(C2CCN(C3CCN(c4cnc(C(=O)NC5CC5)c(F)c4)CC3)C2)[nH]c1=O (single isomer, unassigned) [Compound 408b]	–	–	–	10 to 100	10 to 100	1000 to 10000	–	–	+ (+ indicates a value of 10 to less than 50)
CCc1ccc(C2CCN(C3CCN(c4cnc(C(=O)NC)cc4C)CC3)C2)[nH]c1=O (single isomer, unassigned) [Compound 217a]	100 to 1000	100 to 1000	> 10000	–	–	–	–	–	− (− indicates a value of less than 10)

Further lines, with some results ahead:

IC50 [1, 4] [nM]	Kd [2, 5] [nM]	Kd ([3]; PARP2 probe displacement HTRF) [nM]	IC50 [1, 6] [nM]	Kd [2, 7] [nM]	Kd ([3]; probe displacement HTRF) [nM]	Kd ([2]; PARP1 HTRF, probe displacement HTRF) [nM]	Kd ([2]; PARP1 HTRF, PARP1 probe displacement HTRF) [nM]	SMILES	Selectivity ([2]; probe displacement HTRF)
100 to 1000	100 to 1000	> 10000	–	–	–	–	–	CNC(=O)c1ccc(N2CCC(N3CCCC(c4nc5cc(F)ccc5c(=O)[nH]4)C3)CC2)cn1 (single isomer, unassigned) [Compound 108b]	+ (+ indicates a value of 10 to less than 50)
–	–	–	< 10	< 10	100 to 1000	–	–	N#Cc1ccc(N2CCC(N3CCC(c4cc5ccc(F)cc5c(=O)[nH]4)C3)CC2)c(Cl)c1 (single isomer, unassigned) [Compound 386a]	+++ (+++ indicate a value of at least 100)
< 10	< 10	> 10000	–	–	–	–	–	O=C(NCCF)c1ccc(N2CCC(N3CCCC(c4nc5ccccc5c(=O)[nH]4)C3)CC2)cn1 (single isomer, unassigned) [Compound 110a]	+++ (+++ indicate a value of at least 100)
< 10	< 10	100 to 1000	–	–	–	–	–	CNC(=O)c1ccc(N2CCC(N3CCC(c4nc5ccc(F)cc5c(=O)[nH]4)C3)CC2)cn1 (single isomer, unassigned) [Compound 64a]	+ (+ indicates a value of 10 to less than 50)
< 10	< 10	100 to 1000	–	–	–	–	–	CNC(=O)c1ccc(N2CCC(N3CCC(c4cc5ccccc5c(=O)[nH]4)C3)CC2)cn1 (single isomer, unassigned) [Compound 91a]	+++ (+++ indicate a value of at least 100)
–	–	–	< 10	< 10	100 to 1000	–	–	CNC(=O)c1ccc(N2CCC(N3CCC(c4[nH]c(=O)c5cc(F)ccc5c4F)C3)CC2)cn1 (single isomer, unassigned) [Compound 370a]	+++ (+++ indicate a value of at least 100)
< 10	10 to 100	100 to 1000	–	–	–	–	–	N#Cc1ccc(N2CCC(N3CCC(c4nc5ccccc5c(=O)[nH]4)C3)CC2)cn1 (single isomer, unassigned) [Compound 69a]	++ (++ indicates a value of 50 to less than 100)
< 10	< 10	10 to 100	–	–	–	–	–	CNC(=O)c1ccc(N2CCC(N3CCC(c4[nH]c(=O)c5ccccc5c4Cl)C3)CC2)cn1 (single isomer, unassigned) [Compound 219a]	++ (++ indicates a value of 50 to less than 100)
–	–	–	100 to 1000	100 to 1000	1000 to 10000	–	–	CC(=O)Nc1ccc(N2CCC(N3CCC(c4cc5ccccc5c(=O)[nH]4)C3)CC2)c(Cl)c1 (single isomer, unassigned) [Compound 273a]	− (− indicates a value of less than 10)
–	–	–	10 to 100	100 to 1000	1000 to 10000	–	–	O=c1[nH]c(C2CCN(C3CCN(c4nccs4)CC3)C2)cc2ccccc12 (racemic) [Compound 254rac]	+ (+ indicates a value of 10 to less than 50)
–	–	–	100 to 1000	100 to 1000	> 10000	–	–	CNC(=O)c1ccc(N2CCC(N3CCC(F)(c4nc5ccccc5c(=O)[nH]4)C3)CC2)cn1 (single isomer, unassigned) [Compound 328a]	+ (+ indicates a value of 10 to less than 50)
10 to 100	–	100 to 1000	–	–	–	–	10 to 100	CNC(=O)c1ccc(N2CCC(N3CCC(c4nc5[nH]nc(C(F)(F)F)c5c(=O)[nH]4)C3)CC2)cn1 (single isomer, unassigned) [Compound 162a, N-methyl-5-(4-(3-(4-oxo-3-(trifluoromethyl)-4,5-dihydro-1H-pyrazolo[3,4-d]pyrimidin-6-yl)pyrrolidin-1-yl)piperidin-1-yl)picolinamide]	− (− indicates a value of less than 10)
< 10	< 10	100 to 1000	–	–	–	–	–	O=C(NCCF)c1ccc(N2CCC(N3CCC(c4nc5ccccc5c(=O)[nH]4)C3)CC2)cn1 (single isomer, unassigned) [Compound 117b]	+++ (+++ indicate a value of at least 100)
100 to 1000	10 to 100	> 10000	–	–	–	–	–	CNC(=O)c1ccc(N2CCC(N3CCC(O)(c4nc5ccccc5c(=O)[nH]4)C3)CC2)cn1 (single isomer, unassigned) [Compound 140a]	++ (++ indicates a value of 50 to less than 100)
10 to 100	10 to 100	100 to 1000	–	–	–	–	–	NC(=O)c1ccc(N2CCC(N3CCC(c4nc5ccccc5c(=O)[nH]4)C3)CC2)cn1 (single isomer, unassigned) [Compound 123a]	+ (+ indicates a value of 10 to less than 50)
–	–	–	10 to 100	10 to 100	1000 to 10000	–	–	CC(=O)Nc1ccc(N2CCC(N3CCC(c4nc5ccccc5c(=O)[nH]4)C3)CC2)cn1 (single isomer, unassigned) [Compound 220b]	+ (+ indicates a value of 10 to less than 50)
–	–	–	< 10	< 10	100 to 1000	–	–	CNC(=O)c1ccc(N2CCC(N3CCC(c4cc5ncc(F)cc5c(=O)[nH]4)C3)CC2)cn1 (single isomer, unassigned) [Compound 315a]	+++ (+++ indicate a value of at least 100)
100 to 1000	100 to 1000	> 10000	–	–	–	–	–	CNC(=O)c1ccc(N2CCC(N3CCCC(Cc4nc5ccccc5c(=O)[nH]4)C3)CC2)cn1 (single isomer, unassigned) [Compound 57b]	+ (+ indicates a value of 10 to less than 50)
–	–	–	100 to 1000	100 to 1000	> 10000	–	–	CNC(=O)c1ccc(N2CCC(N3CCC(c4cc5cccc(OC)c5c(=O)[nH]4)C3)CC2)cn1 (single isomer, unassigned) [Compound 249b]	+ (+ indicates a value of 10 to less than 50)
